Measured values: patent publication US20210147367A1, “CRYSTALLINE FORMS OF A MAGL INHIBITOR” (Lundbeck La Jolla Research Center, Inc., priority 2019, published 2021)
“Also recorded” adds a separate entry of the source. Like-named read-outs stand apart in the source and are kept apart here.

Experiments:
[1] = Differential scanning calorimetry (DSC) with XRPD after heating: relative stability of crystalline forms; type: physicochemical; details: for thermodynamic stability relative to other crystalline forms: DSC analysis; for solid form after heating (XRPD): heated to 130° C., above the exotherm, prior to melting
Protocol: X-Ray powder diffractograms were measured on a PANalytical X'Pert PRO X-Ray Diffractometer using CuKα1 radiation (λ=1.5406 Å). The samples were measured in reflection mode in the 2θ-range 3-40 using an X'celerator detector.
Differential Scanning Calorimetry was measured using a TA-Instruments Discovery-DSC calibrated at 5°/min to give the melting point as onset value. About 2 mg of sample is heated 5°/min under nitrogen flow in a closed pan with a pinhole in the lid.

[2] = Slurry experiments in different solvents; type: physicochemical
[3] = Dynamic vapor sorption (DVS); type: physicochemical
Protocol: Dynamic vapour sorption (DVS) was measured using SMS DVS advantage 01 changing the relative humidity from 0% RH to 95% RH in steps of 10% RH (5% between 90 and 95% RH). 2 cycles were performed using 4 mg, starting at 30% RH. The weight changes during the sorption/desorption cycles were plotted, allowing for the hygroscopic nature of the sample to be determined.

[4] = biological target: T1, MAGL (Homo sapiens, UniProt Q99685); experiment: In vitro competitive activity-based protein profiling; type: biochemical
T1 construct: human prefrontal cortex or cell membrane fractions for human assays; from tissue
T1 sequence (Q99685 1-303): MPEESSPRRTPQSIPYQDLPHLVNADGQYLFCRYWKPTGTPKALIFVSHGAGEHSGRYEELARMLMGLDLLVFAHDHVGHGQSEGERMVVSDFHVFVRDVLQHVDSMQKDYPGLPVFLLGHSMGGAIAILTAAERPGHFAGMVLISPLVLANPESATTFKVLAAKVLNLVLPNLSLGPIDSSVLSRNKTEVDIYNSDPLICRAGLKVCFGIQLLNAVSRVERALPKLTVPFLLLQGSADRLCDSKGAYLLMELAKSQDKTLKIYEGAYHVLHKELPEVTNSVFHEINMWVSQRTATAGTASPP
Protocol: (§1) Proteomes (mouse brain membrane fraction or cell lysates for mouse assays; human prefrontal cortex or cell membrane fractions for human assays) (50 μL, 1.0 mg/mL total protein concentration) were preincubated with varying concentrations of inhibitors at 37° C. After 30 min, FP-Rh or HT-01 (1.0 μL, 50 μM in DMSO) was added and the mixture was incubated for another 30 min at 37° C. Reactions were quenched with SDS loading buffer (15 μL-4×) and run on SDS-PAGE. Following gel imaging, serine hydrolase activity was determined by measuring fluorescent intensity of gel bands corresponding to MAGL using ImageJ 1.43u software.

[5] = biological target: T2, MAGL (Mus musculus, UniProt O35678); experiment: MAGL inhibition in mouse brain proteomes from inhibitor treated mice; type: in vivo; details: 5 mg/kg oral gavage, brain proteome 4 h after administration, C57Bl/6J mice, read-out: MAGL % inh. 5 mg/kg (mouse)
T2 construct: from tissue; host or cells: brain of wild-type C57Bl/6J mice
T2 sequence (O35678 1-303): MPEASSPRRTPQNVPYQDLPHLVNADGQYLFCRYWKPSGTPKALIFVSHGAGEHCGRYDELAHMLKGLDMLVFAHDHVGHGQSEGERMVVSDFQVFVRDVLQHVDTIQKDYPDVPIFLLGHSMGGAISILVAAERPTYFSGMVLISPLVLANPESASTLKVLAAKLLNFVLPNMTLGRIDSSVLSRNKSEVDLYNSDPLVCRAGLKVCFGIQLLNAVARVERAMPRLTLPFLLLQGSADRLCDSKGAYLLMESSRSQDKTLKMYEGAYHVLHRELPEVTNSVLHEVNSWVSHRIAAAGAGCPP
Protocol: as §1
Inhibitors were administered to wild-type C57Bl/6J by oral gavage in a vehicle of polyethylene glycol. Each animal was sacrificed 4 h following administration and brain proteomes were prepared and analyzed according to previously established methods (See Niphakis et al., ACS Chem. Neurosci. 2011 and Long et al. Nat. Chem. Biol. 2009).

Compound: CC(C)(Oc1cc(C(F)(F)F)ccc1CN1CCN(C(=O)OC(C(F)(F)F)C(F)(F)F)CC1)C(=O)O [Compound (I) form A, 2-(2-((4-(((1,1,1,3,3,3-hexafluoropropan-2-yl)oxy)carbonyl)piperazin-1-yl)methyl)-5-(trifluoromethyl)phenoxy)-2-methylpropanoic acid form A]
- thermodynamic stability relative to other crystalline forms [1]: the most stable free form up to 60 °C
- thermodynamic stability relative to other crystalline forms ([1]; listed as Compound (I) Form A): thermodynamically more stable than Compound (I) Form C; also recorded: thermodynamically more stable than Compound (I) Form E
- transformation of solid form in slurry ([2]; different solvents, temperatures up to 60° C.): did not lead to transformation into Compound (I) Form D

Compound: CC(C)(Oc1cc(C(F)(F)F)ccc1CN1CCN(C(=O)OC(C(F)(F)F)C(F)(F)F)CC1)C(=O)O [Compound (I) form C, 2-(2-((4-(((1,1,1,3,3,3-hexafluoropropan-2-yl)oxy)carbonyl)piperazin-1-yl)methyl)-5-(trifluoromethyl)phenoxy)-2-methylpropanoic acid form C]
- solid form after heating (XRPD) ([1]; listed as Compound (I) Form C): transformed into Form A

Compound: CC(C)(Oc1cc(C(F)(F)F)ccc1CN1CCN(C(=O)OC(C(F)(F)F)C(F)(F)F)CC1)C(=O)O [Compound (I) form D, 2-(2-((4-(((1,1,1,3,3,3-hexafluoropropan-2-yl)oxy)carbonyl)piperazin-1-yl)methyl)-5-(trifluoromethyl)phenoxy)-2-methylpropanoic acid form D]
- thermodynamic stability relative to other crystalline forms [1]: more thermodynamically stable at higher temperatures
- thermodynamic stability relative to other crystalline forms ([1]; listed as Compound (I) Form D): more thermodynamically stable at high temperature but less stable at low temperature compared to Compound (I) Form A
- temperature above which Compound (I) Form D is the more stable form ([2]; compared with Form A, inferred from slurry experiments): ≥ 60 °C

Compound: CC(C)(Oc1cc(C(F)(F)F)ccc1CN1CCN(C(=O)OC(C(F)(F)F)C(F)(F)F)CC1)C(=O)O [Compound (I) form E, 2-(2-((4-(((1,1,1,3,3,3-hexafluoropropan-2-yl)oxy)carbonyl)piperazin-1-yl)methyl)-5-(trifluoromethyl)phenoxy)-2-methylpropanoic acid form E]
- solid form after heating (XRPD) ([1]; listed as Form E): transformed into Compound (I) Form A

Compound: CC(C)(Oc1cc(C(F)(F)F)ccc1CN1CCN(C(=O)OC(C(F)(F)F)C(F)(F)F)CC1)C(=O)O.O [Compound (I) hydrate, 2-(2-((4-(((1,1,1,3,3,3-hexafluoropropan-2-yl)oxy)carbonyl)piperazin-1-yl)methyl)-5-(trifluoromethyl)phenoxy)-2-methylpropanoic acid hydrate]
- behaviour in sorption/desorption cycles ([3]; 0% RH to 95% RH, 2 cycles): dehydration of the hydrate occurs at low relative humidity
- solid state after DVS measurement ([3]; after 2 cycles 0% RH to 95% RH): turned amorphous

Compound: CC(C)(Oc1cc(C(F)(F)F)ccc1CN1CCN(C(=O)OC(C(F)(F)F)C(F)(F)F)CC1)C(=O)O [Compound (I), 2-(2-((4-(((1,1,1,3,3,3-hexafluoropropan-2-yl)oxy)carbonyl)piperazin-1-yl)methyl)-5-(trifluoromethyl)phenoxy)-2-methylpropanoic acid]
- inhibition at 1 µM ([4]; 1 μM, human proteome, read-out: MAGL % inh. 1 μM (human)): ≥ 75%
- IC50 ([4]; human proteome, read-out: MAGL IC50 (human)): ≤ 0.05 µM
- IC50 ([4]; protocol of example 14, read-out: MAGL IC50): ≤ 0.05 µM
- inhibition at 5 mg/kg [5]: ≥ 75%
